Experimental data: patent US10618918B2, “Substituted boronic acids as antimicrobials” (priority 2015, dated 2020)

Legend:
KP1086 OXA-48 = test: Biapenem potentiation (MPC@1), strain KP1086 OXA-48; assay type: cell-based; settings: minimum BLI concentration inhibiting growth with biapenem 1 μg/mL; tested up to 40 μg/mL
Method: (§1) Biapenem was present in the test medium at 1 μg/mL. […] Table 3 summarizes the BLI potency of biapenem potentiation (MPC@1) for two strains overexpressing class A (KPC) and class D (OXA-48) carbapenemases. Biapenem MIC for each strain is also shown.

ec302 TEM-10 = test: Aztreonam potentiation (MPC@4), strain ec302 TEM-10; settings: minimum BLI concentration inhibiting growth with aztreonam 4 μg/mL; tested up to 40 μg/mL
ec308 SHV-5 = test: Aztreonam potentiation (MPC@4), strain ec308 SHV-5; settings: minimum BLI concentration inhibiting growth with aztreonam 4 μg/mL; tested up to 40 μg/mL
[1] = molecular target: purified class A, C and D enzymes (β-lactamases) (Klebsiella pneumoniae, UniProt Q9F663); test: biochemical; assay type: biochemical; settings: purified KPC-2; nitrocefin (NCF) as reporter substrate
[2] = molecular target: purified class A, C and D enzymes (β-lactamases) (Escherichia coli, UniProt Q9L5C7); test: biochemical; assay type: biochemical; settings: purified CTX-M-14; nitrocefin (NCF) as reporter substrate
[3] = molecular target: purified class A, C and D enzymes (β-lactamases) (Klebsiella pneumoniae, UniProt Q6XEC0); test: biochemical; assay type: biochemical; settings: purified OXA-48; nitrocefin (NCF) as reporter substrate
[4] = molecular target: T1, purified class A, C and D enzymes (β-lactamases) (Pseudomonas aeruginosa, UniProt P24735); test: biochemical; assay type: biochemical
T1 construct: rows headed: Ki (Pa-AmpC, NCF), uM; other: purified Pa-AmpC; nitrocefin (NCF) as reporter substrate

[5] = molecular target: T2, purified class A, C and D enzymes (β-lactamases) (UniProt P0AD64, L31Q/G234S/E235K, species not given); test: biochemical; assay type: biochemical; settings: read-out: Ki (SHV-12, NCF); purified SHV-12; nitrocefin (NCF) as reporter substrate
T2 construct: Ki (SHV-12, NCF), uM; other: purified SHV-12; nitrocefin (NCF) as reporter substrate
T2 sequence (P0AD64 1-286 L31Q/G234S/E235K): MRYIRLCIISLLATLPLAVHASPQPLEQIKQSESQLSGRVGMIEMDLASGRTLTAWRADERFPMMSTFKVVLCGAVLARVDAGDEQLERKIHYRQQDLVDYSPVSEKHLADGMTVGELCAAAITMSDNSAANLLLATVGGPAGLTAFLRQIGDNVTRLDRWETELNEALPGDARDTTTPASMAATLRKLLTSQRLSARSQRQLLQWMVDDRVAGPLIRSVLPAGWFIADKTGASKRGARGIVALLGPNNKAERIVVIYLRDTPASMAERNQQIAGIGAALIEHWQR

[6] = molecular target: T3, purified class A, C and D enzymes (β-lactamases) (Acinetobacter baumannii, UniProt Q9L4P2); test: biochemical; assay type: biochemical; settings: purified OXA-23; nitrocefin (NCF) as reporter substrate
T3 construct: rows headed: Ki (OXA-23, NCF), uM; other: purified OXA-23; nitrocefin (NCF) as reporter substrate

[7] = molecular target: purified class A, C and D enzymes (β-lactamases) (Enterobacter cloacae, UniProt P05364); test: biochemical; assay type: biochemical
KP1004 KPC-2 [8] = test: Aztreonam potentiation (MPC@4), strain KP1004 KPC-2; settings: minimum BLI concentration inhibiting growth with aztreonam 4 μg/mL; tested up to 40 μg/mL
AB1054 OXA-23 = test: Meropenem potentiation (MPC@8), strain AB1054 OXA-23; assay type: cell-based, Acinetobacter baumannii; settings: minimum BLI concentration inhibiting growth with meropenem 8 μg/mL; tested up to 20 μg/mL
KP1004 KPC-2 [9] = test: Biapenem potentiation (MPC@1), strain KP1004 KPC-2; assay type: cell-based; settings: minimum BLI concentration inhibiting growth with biapenem 1 μg/mL; tested up to 40 μg/mL
Method: as §1

ECL1002 = test: Aztreonam potentiation (MPC@4), strain ECL1002; settings: minimum BLI concentration inhibiting growth with aztreonam 4 μg/mL; tested up to 40 μg/mL
EC1010 CMY-6 = test: Aztreonam potentiation (MPC@4), strain EC1010 CMY-6; settings: minimum BLI concentration inhibiting growth with aztreonam 4 μg/mL; tested up to 40 μg/mL
KP1010 SHV-12 = test: Aztreonam potentiation (MPC@4), strain KP1010 SHV-12; settings: minimum BLI concentration inhibiting growth with aztreonam 4 μg/mL; tested up to 40 μg/mL
KP1009 CTX-M-15 = test: Aztreonam potentiation (MPC@4), strain KP1009 CTX-M-15; settings: minimum BLI concentration inhibiting growth with aztreonam 4 μg/mL; tested up to 40 μg/mL
AB1053 OXA-72 = test: Meropenem potentiation (MPC@8), strain AB1053 OXA-72; assay type: cell-based, Acinetobacter baumannii; settings: minimum BLI concentration inhibiting growth with meropenem 8 μg/mL; tested up to 20 μg/mL
KP1005 CTX-M-14 = test: Tigemonam potentiation (MPC@4), strain KP1005 CTX-M-14; settings: minimum BLI concentration inhibiting growth with tigemonam 4 μg/mL; tested up to 40 μg/mL

Sequence of purified class A, C and D enzymes (β-lactamases) (Escherichia coli, UniProt Q9L5C7) (Q9L5C7 entry or part of it): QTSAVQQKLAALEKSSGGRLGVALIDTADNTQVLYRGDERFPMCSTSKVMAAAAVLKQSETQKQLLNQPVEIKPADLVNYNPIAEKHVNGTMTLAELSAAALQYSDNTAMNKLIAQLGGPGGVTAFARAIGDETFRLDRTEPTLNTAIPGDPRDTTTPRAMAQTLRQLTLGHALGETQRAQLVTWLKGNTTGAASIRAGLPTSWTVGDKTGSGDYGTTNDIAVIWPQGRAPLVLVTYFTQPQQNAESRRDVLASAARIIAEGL
T3 sequence (Q9L4P2 whole entry): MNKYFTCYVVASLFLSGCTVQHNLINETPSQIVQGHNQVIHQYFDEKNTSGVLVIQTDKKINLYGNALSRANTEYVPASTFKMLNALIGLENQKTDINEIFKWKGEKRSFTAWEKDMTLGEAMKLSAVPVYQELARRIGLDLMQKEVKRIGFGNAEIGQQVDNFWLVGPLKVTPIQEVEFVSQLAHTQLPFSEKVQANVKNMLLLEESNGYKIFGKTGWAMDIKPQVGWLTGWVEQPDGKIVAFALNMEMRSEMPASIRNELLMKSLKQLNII
Sequence of purified class A, C and D enzymes (β-lactamases) (Enterobacter cloacae, UniProt P05364) (P05364 21-381): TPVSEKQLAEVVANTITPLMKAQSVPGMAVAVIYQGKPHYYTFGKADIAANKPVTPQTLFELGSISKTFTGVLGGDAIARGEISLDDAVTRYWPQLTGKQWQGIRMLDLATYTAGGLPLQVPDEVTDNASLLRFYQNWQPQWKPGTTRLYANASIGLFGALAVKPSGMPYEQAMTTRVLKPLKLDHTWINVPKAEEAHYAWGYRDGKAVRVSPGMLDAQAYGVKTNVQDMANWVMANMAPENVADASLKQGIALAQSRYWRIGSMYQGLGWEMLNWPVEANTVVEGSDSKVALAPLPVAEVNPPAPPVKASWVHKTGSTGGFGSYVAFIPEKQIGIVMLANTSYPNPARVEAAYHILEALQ
T1 sequence (P24735 whole entry): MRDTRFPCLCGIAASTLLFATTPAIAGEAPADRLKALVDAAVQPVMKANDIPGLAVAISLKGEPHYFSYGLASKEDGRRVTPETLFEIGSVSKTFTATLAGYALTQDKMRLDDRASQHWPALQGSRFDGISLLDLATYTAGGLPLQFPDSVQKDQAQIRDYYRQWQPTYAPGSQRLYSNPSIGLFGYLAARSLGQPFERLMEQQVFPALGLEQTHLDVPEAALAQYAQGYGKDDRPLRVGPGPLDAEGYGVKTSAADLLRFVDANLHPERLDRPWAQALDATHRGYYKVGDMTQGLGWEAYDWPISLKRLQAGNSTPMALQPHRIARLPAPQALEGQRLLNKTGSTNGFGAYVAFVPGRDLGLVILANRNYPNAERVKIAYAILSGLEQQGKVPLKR

Row | SMILES | BPM MPC1 OXA-48 KP1086 (KP1086 OXA-48) | AZT MPC4 TEM-10 ec302 (ec302 TEM-10) | AZT MPC4 SHV-5 ec308 (ec308 SHV-5) | Ki (KPC-2, NCF), uM [1] | Ki (CTX-M-14, NCF), uM [2] | Ki (OXA-48, NCF), uM [3] | Ki [4] [nM] | Ki [5] [nM] | Ki [6] [nM] | Ki (P99, NCF), uM [7] | AZT MPC4 KPC-2 KP1004 (KP1004 KPC-2 [8]) | MPM MPC8 AB1054 OXA-23 (AB1054 OXA-23) | BPM MPC1 KP1004 KPC-2 (KP1004 KPC-2 [9]) | AZT MPC4 ECL1002 (ECL1002) | AZT MPC4 CMY-6 EC1010 (EC1010 CMY-6) | AZT MPC4 SHV-12 KP1010 (KP1010 SHV-12) | AZT MPC4 CTX-M-15 KP1009 (KP1009 CTX-M-15) | MPM MPC8 AB1053 OXA-72 (AB1053 OXA-72) | TIG MPC4 CTX-M-14 KP1005 (KP1005 CTX-M-14)
1 | O=C([O-])c1c(-c2ccn[nH]2)ccc2c1O[B-](O)(O)CC2.[Na+].[Na+] [Compound 15, Disodium; 4,4-dihydroxy-8-(1H-pyrazol-5-yl)-5-oxa-4-boranuidabicyclo[4.4.0]deca-1(6),7,9-triene-7-carboxylate] | X (X = MPC@1 ≤ 5 μg/mL) | X (X = MPC@4 ≤ 5 μg/mL) | X (X = MPC@4 ≤ 5 μg/mL) | X (X = Ki ≤ 0.1 μM) | X (X = Ki ≤ 0.1 μM) | X (X = Ki ≤ 0.1 μM) | < 100 | < 100 | < 100 | X (key: X = Ki ≤ 0.1 μM; Y = 0.1 μM < Ki ≤ 1 μM; Z = Ki > 1 μM) | X (X = MPC@4 ≤ 5 μg/mL) | X (X = MPC@1 ≤ 5 μg/mL) | X (X = MPC@1 ≤ 5 μg/mL) | X (X = MPC@4 ≤ 5 μg/mL) | X (X = MPC@4 ≤ 5 μg/mL) | X (X = MPC@4 ≤ 5 μg/mL) | X (X = MPC@4 ≤ 5 μg/mL) | X (X = MPC@1 ≤ 5 μg/mL) | Z (Z = MPC@4 > 20 μg/mL)
2 | NCCn1cc(-c2ccc3c(c2C(=O)O)O[B-](O)(O)CC3)nn1 [Compound 17, Disodium; 8-[1-(2-aminoethyl)triazol-4-yl]-4,4-dihydroxy-5-oxa-4-boranuidabicyclo[4.4.0]deca-1(6),7,9-triene-7-carboxylate] | X (X = MPC@1 ≤ 5 μg/mL) | Z (Z = MPC@4 > 20 μg/mL) | Z (Z = MPC@4 > 20 μg/mL) | X (X = Ki ≤ 0.1 μM) | X (X = Ki ≤ 0.1 μM) | X (X = Ki ≤ 0.1 μM) | 100 to 1000 | 100 to 1000 | < 100 | Y (key: X = Ki ≤ 0.1 μM; Y = 0.1 μM < Ki ≤ 1 μM; Z = Ki > 1 μM) | X (X = MPC@4 ≤ 5 μg/mL) | X (X = MPC@1 ≤ 5 μg/mL) | X (X = MPC@1 ≤ 5 μg/mL) | Z (Z = MPC@4 > 20 μg/mL) | Y (Y = 5 μg/mL < MPC@4 ≤ 20 μg/mL) | Y (Y = 5 μg/mL < MPC@4 ≤ 20 μg/mL) | Z (Z = MPC@4 > 20 μg/mL) | X (X = MPC@1 ≤ 5 μg/mL) | Z (Z = MPC@4 > 20 μg/mL)
3 | C#Cc1ccc2c(c1C(=O)[O-])O[B-](O)(O)CC2.[Na+].[Na+] [Compound 18, Disodium; 8-ethynyl-4,4-dihydroxy-5-oxa-4-boranuidabicyclo[4.4.0]deca-1(6),7,9-triene-7-carboxylate] | X (X = MPC@1 ≤ 5 μg/mL) | X (X = MPC@4 ≤ 5 μg/mL) | X (X = MPC@4 ≤ 5 μg/mL) | X (X = Ki ≤ 0.1 μM) | X (X = Ki ≤ 0.1 μM) | X (X = Ki ≤ 0.1 μM) | < 100 | < 100 | < 100 | X (key: X = Ki ≤ 0.1 μM; Y = 0.1 μM < Ki ≤ 1 μM; Z = Ki > 1 μM) | X (X = MPC@4 ≤ 5 μg/mL) | X (X = MPC@1 ≤ 5 μg/mL) | X (X = MPC@1 ≤ 5 μg/mL) | X (X = MPC@4 ≤ 5 μg/mL) | X (X = MPC@4 ≤ 5 μg/mL) | X (X = MPC@4 ≤ 5 μg/mL) | X (X = MPC@4 ≤ 5 μg/mL) | X (X = MPC@1 ≤ 5 μg/mL) | Z (Z = MPC@4 > 20 μg/mL)
